# Assay results from patent US8197860B2, “Method for enhancing nutrient absorption with astragalosides” (Nuliv Holding Inc., priority 2005, dated 2012).
# Assays:
# Assay type in all cases: cell-based, human
# Caco2 cells = assay: Folate uptake assay; set-up: key to * (regulatory effect on folate uptake): ↑: the arrows that point up represent the enhancing effect on folate uptake; conditions: compound 0.1 μM; for Uptake rate (folate): 2 days, 5 μM folate, pH 6.0
# Protocol: (§1) To evaluate the effect of the isolated astragaloside compound on the uptake of nutrient substances across the intestinal lumen, Caco-2 cells were grown on permeable filter as an experimental model. Caco2 cells originate from human colonic adenocarcinoma and spontaneously differentiate into an enterocyte-like phenotype after two weeks. The Caco-2 cell line, derived from a human colorectal carcinoma, has been used as an in vitro model system for studying drug absorption in gastrointestinal tract. These cells form monolayers with well-developed tight-junctions, and have been evaluated in details as an in vitro model to study both transcellular transport of nutrients and drugs in intestinal lumen.
# (§2) Caco-2 cells were obtained from the ATCC (American Type Culture Collection). The cells were maintained in Dulbecco's modified Eagle medium (DMEM) containing 4.5 g/L glucose and 25 mM Hepes, supplemented with 10% fetal calf serum, 100 U/mL penicillin G and […]. The medium was changed every second day. The cells were routinely checked for Mycoplasma in monthly intervals. Caco-2 cells were cultured on semi-permeable membranes to differentiate into a highly functionalized epithelial barrier with remarkable morphological and biochemical similarity to the small intestinal columnar epithelium. The Caco-2 cell monolayers could therefore be used to study the membrane transport properties of many compounds. To trypsinize the cells, the culture dish was washed once with phosphate-buffered saline (PBS) followed by adding trypsine-EDTA for 10 minutes. The trypsinized cells were separated and filtered into single cells using a 35-μm strainer cap (Falcon 2235) before being seeded for further experiments.
# Caco-2 cells (5×10^4) were seeded in a 48-well plate and maintained in culture medium (DMEM with 10% FBS, 1% nonessential amino acids, L-glutamine, penicillin G (100 U/mL), streptomycin (10 μg/mL), and amphotericin B (2.5 μg/mL) in a 37° C. incubator for 10 days for the cells to differentiate. The culture medium was changed once every two days. The cells were then washed with PBS before replenishing with the culture medium containing 5% FBS and various astragalosides at the indicated concentrations (0.01, 0.1 and 1 μM) for 48 hours. The Caco2 cells were washed out of remaining glucose with PBS and replaced in the glucose buffer (80 mM NaCl, 100 mM mannitol, 20 mM Tris-HCl, pH 7.4, 3 mM K2HPO4, 1 mM CaCl2, 1 mg/mL BSA) for 1 hour. Glucose uptake was initiated by replacing the glucose buffer with 0.2 ml of glucose buffer containing 2 μCi/mL of ^14C-glucose and unlabeled cold glucose to give a final glucose concentration of 25 mM. Glucose uptake was stopped by removing the glucose buffer and washing with PBS at designated time intervals. The cells were lysed in 0.2 mL of 0.2 N NaOH, and 20 μL of the cell lysate were transferred to the filter-bottomed UniFilter plates (Perkin-Elmer, Wellesley, Mass., USA) and dried in a vacuum oven at 37° C. The bottom of the UniFilter plate was sealed and 25 μL of the counting solution were added into each well. Adhesive plate sealers were used in place of the lids and radioactivity of each sample was counted using the microplate liquid scintillation counter (TopCount, Packard NXT, Packard BioScience Company, Meriden, Conn., USA). The amount of glucose accumulated in the cells was calculated and normalized to protein concentration, and uptake rate was expressed as nanomoles of glucose per minutes per milligram of cell protein (nmol/min/mg). Protein concentration was determined by a standard Bicinchoninic acid (BCA) protein assay. Nonspecific glucose uptake was measured by adding 2 μCi of L-[^14C]-glucose and subtracting from each determination to obtain specific glucose uptake.
# The Caco2 cells were subjected to folate uptake test in a manner similar to that described in the glucose uptake assay in Example 1 above. […]
# Caco-2 cell monolayer [1] = assay: Arginine absorption assay (transport across Caco-2 cell monolayer); set-up: key to * (regulatory effect on arginine transport): ↑: the arrows that point up represent the enhancing effect on the arginine transport; conditions: for Regulatory effects on the arginine transport across the Caco2 cell monolayer: Table 3 summary; for Transport rate (arginine): 10 mM L-arginine apical
# Protocol: as §1, §2
# (§3) In measuring transport of arginine across the Caco-2 cell monolayer, both sides of the transwells were washed with arginine incubation buffer consisting of: 137 mM NaCl, 10 mM Hepes, 0.3 mM NaH2PO4, 0.3 mM K2HPO4, 5.4 mM KCl, 2.8 mM CaCl2, 1 mM MgSO4, 10 mM glucose, adjusted to pH 7.4. Then, the cell layer was preincubated in the incubation buffer at 37° C. for 1 h. The volume of incubation buffer was 0.2 mL and 0.9 mL in the apical and basolateral chambers, respectively. The cells were replaced with fresh incubation medium in both chambers prior to the transport experiment. The transport experiment was initiated by replacing the incubation solution on the apical side with solution containing 10 mM of L-arginine in which 0.125 μCi/mL of L-[^3H]-arginine was included. At designated time intervals, 10 μL-solution samples were removed from the basolateral side and radioactivity of each sample was counted using a microplate liquid scintillation counter (TopCount, Packard NXT). During the experiment, when a 10 μL-solution sample was removed from the basolateral side every time, 10 μL buffer was supplemented to keep the volume constant. The uptake of [^3H]-mannitol was used to correct for nonspecific transport of molecules across the monolayer membrane. Results were expressed as the nanomoles of arginine transport across the Caco-2 cell monolayers with respect to time in minutes (nmol/min).
# Caco-2 cell monolayer [2] = assay: Tryptophan absorption assay (transport across Caco-2 cell monolayer); set-up: key to * (regulatory effect on tryptophan transport): ↑: the arrows that point up represent the enhancing effect on the tryptophan transport; conditions: for Regulatory effects on the tryptophan transport across the Caco2 cell monolayer: Table 4 summary; for Tryptophan transport rate: concentration from 0.01 μM to 1 mM
# Protocol: as §1, §2, §3
# The experimental procedures similar to those in Example 2 were used for measuring the uptake of tryptophan molecules across the Caco-2 membrane, except using a tryptophan incubation buffer consisting of 137 mM choline chloride, 10 mM Hepes, 0.6 mM KH2PO4, 5.4 mM KCl, 2.8 mM CaCl2, 1 mM MgSO4, and 10 mM glucose, and having its pH adjusted to 7.4. Results were expressed as the nanomoles of tryptophan transport across the Caco-2 cell monolayers with respect to time in minutes (nmol/min).
# [3] = concentration from 0.01 μM to 1 μM
smiles,measurement,setting,value
"CC(=O)O[C@H]1[C@H](O[C@H]2CC[C@]34C[C@]35CC[C@]3(C)[C@@H]([C@@]6(C)CC[C@@H](C(C)(C)O)O6)[C@@H](O)C[C@@]3(C)[C@@H]5C[C@H](O[C@@H]3O[C@H](CO)[C@@H](O)[C@H](O)[C@H]3O)[C@H]4C2(C)C)OC[C@@H](O)[C@@H]1O [AS2, astragaloside II]",* (regulatory effect on folate uptake),Caco2 cells,↑
same,Percentage (folate uptake vs own control),Caco2 cells,129.05%
same,Uptake rate (folate),Caco2 cells,69.970 ± 3.7720 pmol/mg/min
same,Regulatory effects on the arginine transport across the Caco2 cell monolayer,Caco-2 cell monolayer [1],had regulatory effects on the arginine transport
same,* (regulatory effect on arginine transport),Caco-2 cell monolayer [1]; compound 0.001 μM,↑
same,"Percentage (arginine transport, control = 100)",Caco-2 cell monolayer [1]; compound 0.001 μM,136.97%
same,Transport rate (arginine),Caco-2 cell monolayer [1]; compound 0.001 μM,14.6355 ± 1.2910 nmol/min
same,* (regulatory effect on arginine transport),Caco-2 cell monolayer [1]; compound 0.01 μM,↑
same,"Percentage (arginine transport, control = 100)",Caco-2 cell monolayer [1]; compound 0.01 μM,151.94%
same,Transport rate (arginine),Caco-2 cell monolayer [1]; compound 0.01 μM,16.2358 ± 1.6190 nmol/min
same,* (regulatory effect on arginine transport),Caco-2 cell monolayer [1]; compound 0.1 μM,↑
same,"Percentage (arginine transport, control = 100)",Caco-2 cell monolayer [1]; compound 0.1 μM,161.69%
same,Transport rate (arginine),Caco-2 cell monolayer [1]; compound 0.1 μM,17.2771 ± 1.6170 nmol/min
same,Arginine transport rate,Caco-2 cell monolayer [1]; concentration from 0.001 μM to 0.1 μM,increased
same,Regulatory effects on the tryptophan transport across the Caco2 cell monolayer,Caco-2 cell monolayer [2],had regulatory effects on the tryptophan transport
same,* (regulatory effect on tryptophan transport),Caco-2 cell monolayer [2]; compound 0.01 μM,↑
same,"Percentage (tryptophan transport, control = 100)",Caco-2 cell monolayer [2]; compound 0.01 μM,115.07%
same,Transport rate (tryptophan),Caco-2 cell monolayer [2]; compound 0.01 μM,10.290 ± 0.4115 nmol/min
same,* (regulatory effect on tryptophan transport),Caco-2 cell monolayer [2]; compound 0.1 μM,↑
same,"Percentage (tryptophan transport, control = 100)",Caco-2 cell monolayer [2]; compound 0.1 μM,130.28%
same,Transport rate (tryptophan),Caco-2 cell monolayer [2]; compound 0.1 μM,11.650 ± 0.5789 nmol/min
same,Tryptophan transport rate,Caco-2 cell monolayer [2],increased
"CC(C)(O)[C@@H]1CC[C@](C)([C@H]2[C@@H](O)C[C@@]3(C)[C@@H]4C[C@H](O)[C@H]5C(C)(C)[C@@H](O[C@@H]6OC[C@@H](O)[C@H](O)[C@H]6O[C@@H]6O[C@H](CO)[C@@H](O)[C@H](O)[C@H]6O)CC[C@@]56C[C@@]46CC[C@]23C)O1 [AS3, astragaloside III]",* (regulatory effect on folate uptake),Caco2 cells,↑
same,Percentage (folate uptake vs own control),Caco2 cells,145.41%
same,Uptake rate (folate),Caco2 cells,80.380 ± 6.2170 pmol/mg/min
same,Regulatory effects on the arginine transport across the Caco2 cell monolayer,Caco-2 cell monolayer [1],had regulatory effects on the arginine transport
same,* (regulatory effect on arginine transport),Caco-2 cell monolayer [1]; compound 0.01 μM,↑
same,"Percentage (arginine transport, control = 100)",Caco-2 cell monolayer [1]; compound 0.01 μM,121.74%
same,Transport rate (arginine),Caco-2 cell monolayer [1]; compound 0.01 μM,13.0084 ± 1.0510 nmol/min
same,* (regulatory effect on arginine transport),Caco-2 cell monolayer [1]; compound 0.1 μM,↑
same,"Percentage (arginine transport, control = 100)",Caco-2 cell monolayer [1]; compound 0.1 μM,124.33%
same,Transport rate (arginine),Caco-2 cell monolayer [1]; compound 0.1 μM,13.2858 ± 1.4110 nmol/min
same,* (regulatory effect on arginine transport),Caco-2 cell monolayer [1]; compound 1 μM,↑
same,"Percentage (arginine transport, control = 100)",Caco-2 cell monolayer [1]; compound 1 μM,148.18%
same,Transport rate (arginine),Caco-2 cell monolayer [1]; compound 1 μM,15.8341 ± 1.0000 nmol/min
same,Arginine transport rate,Caco-2 cell monolayer [1]; [3],increased
same,Regulatory effects on the tryptophan transport across the Caco2 cell monolayer,Caco-2 cell monolayer [2],had regulatory effects on the tryptophan transport
same,* (regulatory effect on tryptophan transport),Caco-2 cell monolayer [2]; compound 0.01 μM,↑
same,"Percentage (tryptophan transport, control = 100)",Caco-2 cell monolayer [2]; compound 0.01 μM,159.81%
same,Transport rate (tryptophan),Caco-2 cell monolayer [2]; compound 0.01 μM,14.290 ± 1.3910 nmol/min
same,* (regulatory effect on tryptophan transport),Caco-2 cell monolayer [2]; compound 0.1 μM,↑
same,"Percentage (tryptophan transport, control = 100)",Caco-2 cell monolayer [2]; compound 0.1 μM,151.98%
same,Transport rate (tryptophan),Caco-2 cell monolayer [2]; compound 0.1 μM,13.590 ± 1.0080 nmol/min
same,* (regulatory effect on tryptophan transport),Caco-2 cell monolayer [2]; compound 1 μM,↑
same,"Percentage (tryptophan transport, control = 100)",Caco-2 cell monolayer [2]; compound 1 μM,270.63%
same,Transport rate (tryptophan),Caco-2 cell monolayer [2]; compound 1 μM,24.200 ± 1.0260 nmol/min
same,Tryptophan transport rate,Caco-2 cell monolayer [2],increased
"CC(=O)O[C@H]1[C@H](O[C@H]2CC[C@]34C[C@]35CC[C@]3(C)[C@@H]([C@@]6(C)CC[C@@H](C(C)(C)O)O6)[C@@H](O)C[C@@]3(C)[C@@H]5C[C@H](O[C@@H]3O[C@H](CO)[C@@H](O)[C@H](O)[C@H]3O)[C@H]4C2(C)C)OC[C@@H](OC(C)=O)[C@@H]1O [IsoAS1, isoastragaloside I]",* (regulatory effect on folate uptake),Caco2 cells,↑
same,Percentage (folate uptake vs own control),Caco2 cells,144.83%
same,Uptake rate (folate),Caco2 cells,73.460 ± 3.6060 pmol/mg/min
same,Regulatory effects on the arginine transport across the Caco2 cell monolayer,Caco-2 cell monolayer [1],had regulatory effects on the arginine transport
same,* (regulatory effect on arginine transport),Caco-2 cell monolayer [1]; compound 0.01 μM,↑
same,"Percentage (arginine transport, control = 100)",Caco-2 cell monolayer [1]; compound 0.01 μM,135.49%
same,Transport rate (arginine),Caco-2 cell monolayer [1]; compound 0.01 μM,14.4776 ± 0.5519 nmol/min
same,* (regulatory effect on arginine transport),Caco-2 cell monolayer [1]; compound 0.1 μM,↑
same,"Percentage (arginine transport, control = 100)",Caco-2 cell monolayer [1]; compound 0.1 μM,199.44%
same,Transport rate (arginine),Caco-2 cell monolayer [1]; compound 0.1 μM,21.3107 ± 1.5130 nmol/min
same,* (regulatory effect on arginine transport),Caco-2 cell monolayer [1]; compound 1 μM,↑
same,"Percentage (arginine transport, control = 100)",Caco-2 cell monolayer [1]; compound 1 μM,135.41%
same,Transport rate (arginine),Caco-2 cell monolayer [1]; compound 1 μM,14.4734 ± 1.1350 nmol/min
same,Arginine transport rate,Caco-2 cell monolayer [1]; [3],increased
same,Regulatory effects on the tryptophan transport across the Caco2 cell monolayer,Caco-2 cell monolayer [2],had regulatory effects on the tryptophan transport
same,* (regulatory effect on tryptophan transport),Caco-2 cell monolayer [2]; compound 0.01 μM,↑
same,"Percentage (tryptophan transport, control = 100)",Caco-2 cell monolayer [2]; compound 0.01 μM,115.97%
same,Transport rate (tryptophan),Caco-2 cell monolayer [2]; compound 0.01 μM,10.370 ± 0.8808 nmol/min
same,* (regulatory effect on tryptophan transport),Caco-2 cell monolayer [2]; compound 0.1 μM,↑
same,"Percentage (tryptophan transport, control = 100)",Caco-2 cell monolayer [2]; compound 0.1 μM,149.52%
same,Transport rate (tryptophan),Caco-2 cell monolayer [2]; compound 0.1 μM,13.370 ± 0.3301 nmol/min
same,* (regulatory effect on tryptophan transport),Caco-2 cell monolayer [2]; compound 1 μM,↑
same,"Percentage (tryptophan transport, control = 100)",Caco-2 cell monolayer [2]; compound 1 μM,118.54%
same,Transport rate (tryptophan),Caco-2 cell monolayer [2]; compound 1 μM,10.600 ± 0.8058 nmol/min
same,Tryptophan transport rate,Caco-2 cell monolayer [2],increased
